# Biological target: Arf6 (Homo sapiens (Human), UniProt P62330)
# Test: Fluorometric assay for Arf6 nucleotide exchange catalyzed by ARNO Sec7 domain (GTP-BODIPY FL)
# Type: biochemical
# Details: 20 nM Arf6 assay; read-out: IC50 (μM) 20 nM Arf6
# Method: FIGS. 1A-1D: Fluorometric high throughput assay for Arf6 nucleotide exchange catalyzed by ARNO Sec7 domain. FIG. 1A: Principle of the assay. FIG. 1B: SDS-PAGE analysis of N-terminally His-tagged Arf6(14-175) and ARNO(50-255) purified from the E. coli cultures by immobilized metal affinity chromatography. FIG. 1C: Correlation between signal intensity and ARNO concentration. The assay was performed using 50 mM Tris-HCl, pH 7.5, 1 mM MgCl2, 0.01% TX-100, 1% DMSO, 50 nM GTP-BODIPY FL, supplemented with ARNO-Sec7 at indicated concentrations in the absence or in the presence of 0.2 μM Arf6-GDP. Fluorescence intensities were monitored using a Synergy 4 plate reader (BioTek) at the excitation and emission wavelengths of 490 nm and 520 nm, respectively. FIG. 1D: Time course of apparent inhibitory potency of GDP. The assay was performed in automated mode using a Matrix PlateMate liquid handler.
# The primary biochemical assay uses a fluorometric assay for monitoring the replacement of bound nucleotide with a fluorogenic GTP derivative bearing a BODIPY FL moiety, allowing for the identification of compounds that can inhibit this exchange (see FIG. 1A). In certain embodiments, the methods disclosed herein may exploit the reduction of intramolecular fluorescence quenching of the modified nucleotide upon its binding to the target protein (see, e.g., McEwen D P, Gee K R, Kang H C, Neubig R R. Fluorescent BODIPY-GTP analogs: real-time measurement of nucleotide binding to G proteins. Anal Biochem. 2001 Apr. 1; 291(1): 109-17).
# The fluorometric assay formatted for 96-well microtiter plates has passed quality control based on the following criteria: i) S/B ratio of 4-fold and Z′-factor of 0.61; ii) linear correlation between signal intensity and ARNO concentration (see FIG. 1C); iii) sufficiently reproducible inhibitory effects of the reference inhibitor GDP for assay durations up to at least 1 hour (see FIG. 1D); and iv) lack of apparent fluorescence quenchers among 400 randomly selected compounds. The assay is amenable to automation with a throughput of approximately 5,000 data points per 8 hours.
# Sequence of Arf6 (P62330 14-175): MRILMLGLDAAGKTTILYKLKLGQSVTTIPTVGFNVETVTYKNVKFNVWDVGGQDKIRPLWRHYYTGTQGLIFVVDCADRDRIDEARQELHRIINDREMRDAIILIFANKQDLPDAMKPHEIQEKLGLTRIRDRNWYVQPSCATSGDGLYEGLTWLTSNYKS
row,IC50 [µM],Structure (SMILES)
1,1.9,N#Cc1ccc(-c2cc(=O)n3nc(C(F)(F)F)c(-c4ccc(Cl)cc4)c3[nH]2)cc1 [Compound 40]
2,3.7,CC(=O)Nc1ccc(-c2cc(=O)n3nc(C(F)(F)F)c(-c4ccc(Cl)cc4)c3[nH]2)cc1 [Compound 67]
3,14,O=c1cc(-c2ccc([N+](=O)[O-])cc2)[nH]c2c(-c3ccc(Cl)cc3)c(C3CC3)nn12 [Compound 104]
4,2.1,O=C(Nc1cc(Cl)c(-c2cccc3cccnc23)c(Cl)c1)c1cc(Cl)cc(Br)c1O [Compound 119]
5,1.4,COc1cc(-c2c(C)nn3c(=O)cc(-c4ccc([N+](=O)[O-])cc4)[nH]c23)ccc1Cl [Compound 26]
6,13,O=[N+]([O-])c1ccc(C2=CC(O)n3nc(-c4cccc(Cl)c4)cc3N2)cc1 (stereo not drawn) [Compound 100]
7,5.9,O=c1cc(-c2ccc([N+](=O)[O-])cc2)[nH]c2c(-c3ccc(Cl)cc3)c(CN3CCOCC3)nn12 [Compound 80]
8,1.1,O=c1cc(-c2ccc(Br)cc2)[nH]c2c(-c3ccc(Cl)cc3)c(C(F)(F)F)nn12 [Compound 15]
9,0.58,O=c1cc(-c2ccc([N+](=O)[O-])cc2)[nH]c2c(-c3ccc(Cl)c(Cl)c3)c(-c3ccccc3)nn12 [Compound 5]
10,3.3,CCC(=O)Nc1cccc(-c2cc(=O)n3nc(C(F)(F)F)c(-c4ccc(Cl)cc4)c3[nH]2)c1 [Compound 61]
11,13,Cc1nn2c(=O)cc(-c3ccc([N+](=O)[O-])cc3)[nH]c2c1-c1ccc(OC(F)(F)F)cc1 [Compound 101]
12,17,O=c1[nH]c(CSc2ncnc3sccc23)nc2ccsc12 [Compound 138]
13,2.2,CC(C)(C)c1nn2c(=O)cc(-c3cccc(C#N)c3)[nH]c2c1-c1ccc(Cl)cc1 [Compound 44]
14,1.7,CC(C)CC(=O)Nc1ccc(-c2cc(=O)n3nc(C(F)(F)F)c(-c4ccc(Cl)cc4)c3[nH]2)cc1 [Compound 35]
15,3.2,Cc1nn2c(=O)cc(-c3ccc([N+](=O)[O-])cc3)[nH]c2c1-c1cccc(Cl)c1Cl [Compound 57]
16,0.98,O=c1c(Cl)c(-c2ccccc2)[nH]c2c(-c3ccc(Cl)cc3)c(C(F)(F)F)nn12 [Compound 13]
17,0.88,O=c1c(Cl)c(-c2ccc([N+](=O)[O-])cc2)[nH]c2c(-c3ccc(Cl)cc3)c(C(F)(F)F)nn12 [Compound 10]
18,16,Fc1ccc(C2CC(c3cccs3)=NN2c2nc(-c3ccc(-c4ccccc4)cc3)cs2)cc1 (stereo not drawn) [Compound 136]
19,10,CCS(=O)(=O)Nc1ccc(-c2cc(=O)n3nc(C)c(-c4ccc(Cl)cc4)c3[nH]2)cc1 [Compound 96]
20,0.96,Cc1ccc(-c2cccc(-c3cc(=O)n4nc(C(F)(F)F)c(-c5ccc(Cl)cc5)c4[nH]3)c2)cn1 [Compound 12]
21,1.4,O=c1cc(-c2ccc(Cl)cc2)[nH]c2c(-c3ccc(Cl)cc3)c(C(F)(F)F)nn12 [Compound 25]
22,4,Cc1nc2c(=O)[nH]c(-c3ccc([N+](=O)[O-])cc3)nn2c1-c1ccc(Cl)cc1 [Compound 69]
23,0.5,O=C(Nc1ccc(C2=Nc3c(-c4ccc(Cl)cc4)c(C(F)(F)F)nn3C(=O)C2)cc1)c1ccccc1 [Compound 3]
24,0.66,O=c1cc(-c2ccc(Oc3ccccc3)cc2)[nH]c2c(-c3ccc(Cl)c(Cl)c3)c(C(F)(F)F)nn12 [Compound 6]
25,1.1,CN(C)c1ccc(-c2cccc(-c3cc(=O)n4nc(C(F)(F)F)c(-c5ccc(Cl)cc5)c4[nH]3)c2)cn1 [Compound 19]
26,14,Cc1nn2c(=O)cc(C3CCCCC3)[nH]c2c1-c1ccc(Cl)cc1 [Compound 103]

row,IC50 [µM],Structure (SMILES)
1,1.7,Cc1nn2c(=O)cc(-c3ccc([N+](=O)[O-])cc3)[nH]c2c1-c1ccc(Cl)cc1Cl [Compound 36]
2,30,CCCc1cc(=O)[nH]c(SCc2cc(=O)n3cc(Br)ccc3n2)n1 [Compound 132]
3,1.1,O=c1cc(-c2ccc(-c3cccnc3)cc2)[nH]c2c(-c3ccc(Cl)cc3)c(C(F)(F)F)nn12 [Compound 17]
4,5.4,O=C1NC(=O)c2ccccc2/C1=C/c1cnn(Cc2ccccc2)c1 [Compound 124]
5,1.4,CC(c1ccccc1)c1nn2c(=O)cc(-c3ccc([N+](=O)[O-])cc3)[nH]c2c1-c1ccc(Cl)cc1 (stereo not drawn) [Compound 28]
6,2.1,Cc1nn2c(=O)cc(-c3ccc([N+](=O)[O-])cc3)[nH]c2c1-c1cc(Cl)cc(Cl)c1 [Compound 43]
7,3,CSc1ccc(Cc2nn3c(=O)cc(-c4ccc([N+](=O)[O-])cc4)[nH]c3c2-c2ccc(Cl)cc2)cc1 [Compound 54]
8,8.4,Cn1cc(/C=C(\CC(=O)O)C2Nc3ccccc3S2)c(-c2ccc3c(c2)OCCCO3)n1 (stereo not drawn) [Compound 128]
9,19,O=C(COC(=O)c1cc2ccccc2[nH]1)NCCSc1ccc(Cl)cc1 [Compound 139]
10,4.2,O=c1cc(-c2ccc([N+](=O)[O-])cc2)[nH]c2c(-c3ccccc3)c(C(F)(F)F)nn12 [Compound 72]
11,7.9,CS(=O)(=O)c1ccc(-c2cc(=O)n3nc(C4CC4)c(-c4ccc(Cl)cc4)c3[nH]2)cc1 [Compound 91]
12,3.2,CN(C)C(=O)c1ccc(-c2cc(=O)n3nc(Cc4ccccc4)c(-c4ccc(Cl)cc4)c3[nH]2)cc1 [Compound 56]
13,17,CSc1nnc2c(n1)OC(c1cc(O)ccc1[N+](=O)[O-])Nc1ccccc1-2 (stereo not drawn) [Compound 137]
14,4.1,Cc1nn2c(=O)cc(-c3cccc(-c4ccncc4)c3)[nH]c2c1-c1ccc(Cl)cc1 [Compound 70]
15,4.3,CC(=O)Nc1cccc(-c2cc(=O)n3nc(C(F)(F)F)c(-c4ccc(Cl)cc4)c3[nH]2)c1 [Compound 74]
16,1.2,O=c1cc(-c2ccc([N+](=O)[O-])cc2)[nH]c2c(-c3ccc(Cl)c(Cl)c3)c(Cc3ccccc3)nn12 [Compound 23]
17,1.4,O=c1cc(-c2ccc([N+](=O)[O-])cc2)[nH]c2c(-c3ccc(Cl)c(Cl)c3)c(C3CC3)nn12 [Compound 27]
18,16,N#Cc1ccc(-c2cc(=O)c3nc(C4CC4)c(-c4ccc(Cl)cc4)n3[nH]2)cc1 [Compound 108]
19,4.2,Cc1nn2c(=O)cc(-c3ccc([N+](=O)[O-])cc3)[nH]c2c1-c1ccc(Cl)c(F)c1 [Compound 73]
20,19,Cc1nn2c(=O)cc(-c3ccc([N+](=O)[O-])cc3)[nH]c2c1C1CCCC1 [Compound 110]
21,16,O=C(O)c1ccc(-c2cc(=O)n3nc(C4CC4)c(-c4ccc(Cl)cc4)c3[nH]2)cc1 [Compound 107]
22,0.33,O=c1cc(-c2cccc(Oc3cc(F)cc(F)c3)c2)[nH]c2c(-c3ccc(Cl)c(Cl)c3)c(C(F)(F)F)nn12 [Compound 2]
23,1.1,Cc1nn2c(=O)cc(-c3ccc([N+](=O)[O-])cc3)[nH]c2c1-c1ccc(-c2ccccc2)cc1 [Compound 18]
24,16,O=C1/C(=N/Nc2nc3ccccc3s2)C(c2ccccc2)=NN1c1nc(-c2ccccc2)cs1 [Compound 135]
25,1,O=c1cc(-c2cccc(Oc3ccccc3)c2)[nH]c2c(-c3ccc(Cl)c(Cl)c3)c(C3CC3)nn12 [Compound 14]
26,1.2,O=c1cc(-c2ccc([N+](=O)[O-])cc2)[nH]c2c(-c3ccc(Cl)c(Cl)c3)c(C3CC3)nn12 [Compound 22]

# Same assay, conditions: 200 nM Arf6 assay; read-out: IC50 (μM) 200 nM Arf6
row,IC50 [µM],Structure (SMILES)
1,10,O=[N+]([O-])c1ccc(C2=CC(O)n3nc(-c4cccc(Cl)c4)cc3N2)cc1 (stereo not drawn) [Compound 100]
2,3.6,COc1ccc(Cc2nn3c(=O)cc(-c4ccc([N+](=O)[O-])cc4)[nH]c3c2-c2ccccc2)cc1 [Compound 64]
3,9.7,O=c1c2c(-c3ccc(Cl)cc3)csc2[nH]c(=S)n1Cc1ccccc1 [Compound 129]
4,1.1,Cc1cccc(N2C(=O)/C(=C/c3cc([N+](=O)[O-])cc(Br)c3O)SC2=S)c1 [Compound 115]
5,17,COc1ccc(-c2c(C)nn3c(=O)cc(-c4ccc([N+](=O)[O-])cc4)[nH]c23)cc1 [Compound 109]
6,29,O=c1c(-c2cccc3ccccc23)c(C(F)(F)F)oc2cc(O)ccc12 [Compound 140]
7,3.2,O=c1cc(-c2ccc([N+](=O)[O-])cc2)[nH]c2c(-c3ccccc3)c(Cc3ccccc3)nn12 [Compound 59]
8,3.1,COc1ccc(-c2c(Cc3ccccc3)nn3c(=O)cc(-c4ccc([N+](=O)[O-])cc4)[nH]c23)cc1 [Compound 55]
9,1.1,O=c1cc(-c2ccc(Oc3ccccc3)cc2)[nH]c2c(-c3ccc(Cl)c(Cl)c3)c(C(F)(F)F)nn12 [Compound 6]
10,9.4,O=c1cc(-c2ccccc2)[nH]c2c(-c3ccccc3)c(Cc3ccccc3)nn12 [Compound 95]
11,3.8,O=c1cc(-c2ccc([N+](=O)[O-])cc2)[nH]c2c(-c3ccccc3)c(C(F)(F)F)nn12 [Compound 72]
12,2.6,CN(C)C(=O)c1ccc(-c2cc(=O)n3nc(Cc4ccccc4)c(-c4ccc(Cl)cc4)c3[nH]2)cc1 [Compound 56]
13,6.2,COc1ccc(-c2cc(=O)n3nc(Cc4ccccc4)c(-c4ccc(Cl)cc4)c3[nH]2)cc1 [Compound 83]
14,1.7,O=c1cc(-c2ccc([N+](=O)[O-])cc2O)[nH]c2c(-c3ccc(Cl)cc3)c(Cc3ccccc3)nn12 [Compound 37]
